Test results from PubChem BioAssay AID1963431 (Molecular Pharmacology Branch, DTP, NCI, 2024).
Each block holds one compound with its values, some of them ahead of it.

System: Rh18 complex spheroid viability, percent test/control
Assay: Anticancer human tumor Rh18 cell line growth inhibition [Asc];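 also: spheroids exposed to compound for 7 days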;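 as to viability, T/C: 100% = DMSO vehicle control wells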
Settings: for IC50: curve of first compound; for viability, T/C: stronger effect = lower value
Method in brief: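 Complex solid-tumor spheroids incorporating human endothelial and mesenchymal stem cells received single agents or combinations over half-log dilution ranges anchored to clinical Cmax.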

[1] = second compound 0.1 µM, first compound 0.0316 µM
[2] = second compound 0.1 µM, first compound 0.1 µM
[3] = second compound 0.1 µM, first compound 0.316 µM
[4] = second compound 0.1 µM, first compound 1 µM
[5] = second compound 0.1 µM, first compound 3.16 µM
[6] = second compound 0.1 µM, first compound 10 µM
[7] = second compound 0.316 µM, first compound 0.0316 µM
[8] = second compound 0.316 µM, first compound 0.1 µM
[9] = second compound 0.316 µM, first compound 0.316 µM
[10] = second compound 0.316 µM, first compound 1 µM
[11] = second compound 0.316 µM, first compound 3.16 µM
[12] = second compound 0.316 µM, first compound 10 µM
[13] = second compound 1 µM, first compound 0.0316 µM
[14] = second compound 1 µM, first compound 0.1 µM
[15] = second compound 1 µM, first compound 0.316 µM
[16] = second compound 1 µM, first compound 1 µM
[17] = second compound 1 µM, first compound 3.16 µM
[18] = second compound 1 µM, first compound 10 µM
[19] = second compound 3.16 µM, first compound 0.0316 µM
[20] = second compound 3.16 µM, first compound 0.1 µM
[21] = second compound 10 µM, first compound 0.0316 µM
[22] = second compound 10 µM, first compound 0.1 µM

IC50 (second compound 0.01 µM): 484 nM
IC50 (second compound 0.0316 µM): 152 nM
IC50 (second compound 0.1 µM): < 31.6 nM
IC50 (second compound 0.316 µM): < 31.6 nM
IC50 (second compound 1 µM): < 31.6 nM
SMILES: C=C(F)C(=O)N1CCN(c2nc(OCC3CCCN3C)nc3c2CCN(c2cccc4cccc(Cl)c24)C3)CC1CC#N (stereo not given) + CNC(C)C(=O)NC1CN(S(=O)(=O)c2cccc(S(=O)(=O)N3CCC4CCC(C(=O)NC(c5ccccc5)c5ccccc5)N4C(=O)C(NC(=O)C(C)NC)C3)c2)CCC2CCC(C(=O)NC(c3ccccc3)c3ccccc3)N2C1=O
viability, T/C (second compound 0.01 µM, first compound 0.0316 µM): 71%
viability, T/C (second compound 0.01 µM, first compound 0.1 µM): 70.1%
viability, T/C (second compound 0.01 µM, first compound 0.316 µM): 53.5%
viability, T/C (second compound 0.01 µM, first compound 1 µM): 40.7%
viability, T/C (second compound 0.01 µM, first compound 3.16 µM): 16.2%
viability, T/C (second compound 0.01 µM, first compound 10 µM): 0.19%
viability, T/C (second compound 0.0316 µM, first compound 0.0316 µM): 46.5%
viability, T/C (second compound 0.0316 µM, first compound 0.1 µM): 62.6%
viability, T/C (second compound 0.0316 µM, first compound 0.316 µM): 39.8%
viability, T/C (second compound 0.0316 µM, first compound 1 µM): 39.7%
viability, T/C (second compound 0.0316 µM, first compound 3.16 µM): 14.8%
viability, T/C (second compound 0.0316 µM, first compound 10 µM): 0.18%
viability, T/C [1]: 41.6%
viability, T/C [2]: 42.2%
viability, T/C [3]: 43.8%
viability, T/C [4]: 34.4%
viability, T/C [5]: 10.1%
viability, T/C [6]: 0.19%
viability, T/C [7]: 49.4%
viability, T/C [8]: 49%
viability, T/C [9]: 47.7%
viability, T/C [10]: 39.2%
viability, T/C [11]: 10.8%
viability, T/C [12]: 0.19%
viability, T/C [13]: 42.3%
viability, T/C [14]: 45.3%
viability, T/C [15]: 37.7%
viability, T/C [16]: 31.3%
viability, T/C [17]: 6.38%
viability, T/C [18]: 0.2%

IC50 (second compound 0.01 µM): < 9.49 nM
IC50 (second compound 0.0316 µM): < 9.49 nM
IC50 (second compound 0.1 µM): < 9.49 nM
IC50 (second compound 0.316 µM): < 9.49 nM
IC50 (second compound 1 µM): < 9.49 nM
SMILES: CCN1C(C(=O)NC23CCC(C(=O)O)(CC2)CC3)C(c2cccc(Cl)c2F)C2(C(=O)Nc3cc(Cl)ccc32)C12CCCCC2 (stereo not given) + CNC(C)C(=O)NC1CN(S(=O)(=O)c2cccc(S(=O)(=O)N3CCC4CCC(C(=O)NC(c5ccccc5)c5ccccc5)N4C(=O)C(NC(=O)C(C)NC)C3)c2)CCC2CCC(C(=O)NC(c3ccccc3)c3ccccc3)N2C1=O
viability, T/C (second compound 0.01 µM, first compound 0.00949 µM): 33%
viability, T/C (second compound 0.01 µM, first compound 0.03 µM): 26.5%
viability, T/C (second compound 0.01 µM, first compound 0.0949 µM): 19.7%
viability, T/C (second compound 0.01 µM, first compound 0.3 µM): 11.7%
viability, T/C (second compound 0.01 µM, first compound 0.949 µM): 10.8%
viability, T/C (second compound 0.01 µM, first compound 3 µM): 7.5%
viability, T/C (second compound 0.0316 µM, first compound 0.00949 µM): 28.5%
viability, T/C (second compound 0.0316 µM, first compound 0.03 µM): 21.7%
viability, T/C (second compound 0.0316 µM, first compound 0.0949 µM): 16.3%
viability, T/C (second compound 0.0316 µM, first compound 0.3 µM): 11.6%
viability, T/C (second compound 0.0316 µM, first compound 0.949 µM): 10.3%
viability, T/C (second compound 0.0316 µM, first compound 3 µM): 7.98%
viability, T/C (second compound 0.1 µM, first compound 0.00949 µM): 20.6%
viability, T/C (second compound 0.1 µM, first compound 0.03 µM): 18.6%
viability, T/C (second compound 0.1 µM, first compound 0.0949 µM): 14.6%
viability, T/C (second compound 0.1 µM, first compound 0.3 µM): 13.5%
viability, T/C (second compound 0.1 µM, first compound 0.949 µM): 10.5%
viability, T/C (second compound 0.1 µM, first compound 3 µM): 8.21%
viability, T/C (second compound 0.316 µM, first compound 0.00949 µM): 21%
viability, T/C (second compound 0.316 µM, first compound 0.03 µM): 18.1%
viability, T/C (second compound 0.316 µM, first compound 0.0949 µM): 17.7%
viability, T/C (second compound 0.316 µM, first compound 0.3 µM): 14.1%
viability, T/C (second compound 0.316 µM, first compound 0.949 µM): 9.49%
viability, T/C (second compound 0.316 µM, first compound 3 µM): 10.4%
viability, T/C (second compound 1 µM, first compound 0.00949 µM): 19.9%
viability, T/C (second compound 1 µM, first compound 0.03 µM): 17.2%
viability, T/C (second compound 1 µM, first compound 0.0949 µM): 15.9%
viability, T/C (second compound 1 µM, first compound 0.3 µM): 13.7%
viability, T/C (second compound 1 µM, first compound 0.949 µM): 11.8%
viability, T/C (second compound 1 µM, first compound 3 µM): 9.28%

IC50 (second compound 0.1 µM): < 0.316 nM
IC50 (second compound 0.316 µM): < 0.316 nM
IC50 (second compound 1 µM): < 0.316 nM
IC50 (second compound 3.16 µM): < 0.316 nM
IC50 (second compound 10 µM): < 0.316 nM
SMILES: Cn1ncnc1[C@H]1c2n[nH]c(=O)c3cc(F)cc(c23)N[C@@H]1c1ccc(F)cc1 + Cc1c(S(C)(=O)=O)c(-c2cc(F)cc(N3CCN(c4ccc(NS(=O)(=O)c5ccc(NC(CCN6CCC(C(=O)OCCCP(=O)(O)O)CC6)CSc6ccccc6)c(S(=O)(=O)C(F)(F)F)c5)cc4)CC3)c2)c(-c2ccc(Cl)cc2)n1C(C)C
viability, T/C (second compound 0.1 µM, first compound 0.000316 µM): 17.4%
viability, T/C (second compound 0.1 µM, first compound 0.001 µM): 14.9%
viability, T/C (second compound 0.1 µM, first compound 0.00316 µM): 17%
viability, T/C (second compound 0.1 µM, first compound 0.01 µM): 15.3%
viability, T/C [1]: 13.6%
viability, T/C [2]: 15.4%
viability, T/C (second compound 0.316 µM, first compound 0.000316 µM): 10.9%
viability, T/C (second compound 0.316 µM, first compound 0.001 µM): 11.7%
viability, T/C (second compound 0.316 µM, first compound 0.00316 µM): 10.6%
viability, T/C (second compound 0.316 µM, first compound 0.01 µM): 11.8%
viability, T/C [7]: 11.4%
viability, T/C [8]: 12.6%
viability, T/C (second compound 1 µM, first compound 0.000316 µM): 10.5%
viability, T/C (second compound 1 µM, first compound 0.001 µM): 9.96%
viability, T/C (second compound 1 µM, first compound 0.00316 µM): 7.96%
viability, T/C (second compound 1 µM, first compound 0.01 µM): 6.9%
viability, T/C [13]: 8.38%
viability, T/C [14]: 9.11%
viability, T/C (second compound 3.16 µM, first compound 0.000316 µM): 5.76%
viability, T/C (second compound 3.16 µM, first compound 0.001 µM): 7.46%
viability, T/C (second compound 3.16 µM, first compound 0.00316 µM): 5.55%
viability, T/C (second compound 3.16 µM, first compound 0.01 µM): 6.19%
viability, T/C [19]: 6.82%
viability, T/C [20]: 6.64%
viability, T/C (second compound 10 µM, first compound 0.000316 µM): 6.76%
viability, T/C (second compound 10 µM, first compound 0.001 µM): 6.12%
viability, T/C (second compound 10 µM, first compound 0.00316 µM): 6.36%
viability, T/C (second compound 10 µM, first compound 0.01 µM): 5.83%
viability, T/C [21]: 6.8%
viability, T/C [22]: 9.69%

IC50 (second compound 0.1 µM): < 31.6 nM
IC50 (second compound 0.316 µM): < 31.6 nM
IC50 (second compound 1 µM): < 31.6 nM
IC50 (second compound 3.16 µM): < 31.6 nM
IC50 (second compound 10 µM): < 31.6 nM
SMILES: O=C(c1cc(Cc2n[nH]c(=O)c3ccccc23)ccc1F)N1CCN(C(=O)C2CC2)CC1 + Cc1c(S(C)(=O)=O)c(-c2cc(F)cc(N3CCN(c4ccc(NS(=O)(=O)c5ccc(NC(CCN6CCC(C(=O)OCCCP(=O)(O)O)CC6)CSc6ccccc6)c(S(=O)(=O)C(F)(F)F)c5)cc4)CC3)c2)c(-c2ccc(Cl)cc2)n1C(C)C
viability, T/C [1]: 14.8%
viability, T/C [2]: 14.2%
viability, T/C [3]: 14.6%
viability, T/C [4]: 17.6%
viability, T/C [5]: 18.5%
viability, T/C [6]: 13.5%
viability, T/C [7]: 9.83%
viability, T/C [8]: 9.85%
viability, T/C [9]: 10.5%
viability, T/C [10]: 10.7%
viability, T/C [11]: 16.4%
viability, T/C [12]: 9.72%
viability, T/C [13]: 8.79%
viability, T/C [14]: 10.4%
viability, T/C [15]: 9.85%
viability, T/C [16]: 8.8%
viability, T/C [17]: 11%
viability, T/C [18]: 8.8%
viability, T/C [19]: 6.37%
viability, T/C [20]: 7.47%
viability, T/C (second compound 3.16 µM, first compound 0.316 µM): 8.14%
viability, T/C (second compound 3.16 µM, first compound 1 µM): 5.82%
viability, T/C (second compound 3.16 µM, first compound 3.16 µM): 8%
viability, T/C (second compound 3.16 µM, first compound 10 µM): 7.02%
viability, T/C [21]: 4.38%
viability, T/C [22]: 4.61%
viability, T/C (second compound 10 µM, first compound 0.316 µM): 6.78%
viability, T/C (second compound 10 µM, first compound 1 µM): 4.36%
viability, T/C (second compound 10 µM, first compound 3.16 µM): 5.03%
viability, T/C (second compound 10 µM, first compound 10 µM): 5.76%
